Patent publication US20090011410A1, “METHOD FOR TAILORING ADMINISTRATION OF DRUGS BY QUANTITATION OF MRNA” (priority 2004, published 2009)

Tests used:
IL-2 mRNA = experiment: PHA-P-induced leukocyte IL-2 mRNA expression in heparinized whole blood of healthy adults; format: cell-based, human
Description: Blood was obtained from healthy adults and from patients with psoriasis (4), aplastic anemia (1), nephrotic syndrome (1), and bone marrow transplantation (2). At the time of blood draw, one EDTA tube was sent to clinical laboratory for the measurement of leukocyte counts, and one heparin tube was stored on ice. […] Fifty μL each of blood sample was applied to three different wells of filterplates (triplicate from the beginning), and leukocytes were collected on the membrane by centrifugation at 800×g for 2 min. After washing each well with 300 μL phosphate buffered saline (PBS) once by centrifugation, the lysis buffer described above was applied to each well and incubated at 37° C. for 10 min to release mRNA from trapped leukocytes. The lysate was then transferred to oligo-(dT)-immobilized microplates (GenePlate, RNAture, Irvine, Calif.) by centrifugation at 2000× g for 5 min, and incubated at 4° C. overnight for hybridization. After washing each well with 100 μL lysis buffer 3 times followed by 150 μL wash buffer (10 mM Tris, pH 7.4, 1 mM EDTA, pH 8.0, and 0.5 M NaCl) 3 times, cDNA was synthesized in each well by adding buffer, nucleotides, a cocktail of specific primers, RNasin, and MMLV reverse transcriptase (Promega, Madison, Wis.), and incubated at 37° C. for 2 hours. […]

lymphocyte blastogenesis = settings: induction of lymphocyte blastogenesis, activity declined at higher doses; cited from earlier work

phytohemagglutinin-P [PHA-P]
PHA-P concentration from which IL-2 mRNA increased (IL-2 mRNA; heparinized whole blood (FIG. 18)): ≥ 5 µg/mL
PHA-P concentration over which IL-2 mRNA reached a plateau (IL-2 mRNA; heparinized whole blood (FIG. 18, 19)): over 40 μg/mL
PHA-P concentration of maximal action (lymphocyte blastogenesis): 10 to 20 µg/mL
